Measurements published in patent US8546608B2, “Proteasome inhibitors and methods of using the same” (Cephalon, Inc., priority 2003, dated 2013).

Columns and labels:
[1] = molecular target: T1, proteasome in Molt-4 cells (human leukemia) (Homo sapiens, UniProt P20618+P28074); type: cell-based; conditions: assay of Example E, inhibition of MOLT4; read-out: MOLT4 (EC50)
T1 sequence (P28074 60-263): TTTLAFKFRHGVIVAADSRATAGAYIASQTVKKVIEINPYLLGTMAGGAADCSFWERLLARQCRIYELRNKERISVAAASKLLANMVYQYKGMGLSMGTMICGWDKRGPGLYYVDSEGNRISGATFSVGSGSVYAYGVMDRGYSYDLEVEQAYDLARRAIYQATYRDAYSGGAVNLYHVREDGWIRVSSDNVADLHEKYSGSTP
T1 sequence (P20618 29-241): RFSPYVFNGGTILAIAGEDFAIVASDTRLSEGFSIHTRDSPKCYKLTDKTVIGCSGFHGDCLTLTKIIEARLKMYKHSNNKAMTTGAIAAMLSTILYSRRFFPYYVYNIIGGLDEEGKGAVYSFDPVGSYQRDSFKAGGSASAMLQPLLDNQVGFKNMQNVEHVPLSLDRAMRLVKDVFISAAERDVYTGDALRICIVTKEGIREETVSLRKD
Summary of the method: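 Intact Molt-4 cells (6×10^6 cells/mL) in HEPES-buffered saline were preincubated with inhibitor 15 min at 37 °C, then given cell-permeable MeOSuc-FLF-AFC at 25 μM final.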

[2] = molecular target: T2, 20S Human Erythrocyte Proteasome (HEP) (Homo sapiens, UniProt P20618+P28074); experiment: Chymotrypsin-like activity of 20S Human Erythrocyte Proteasome (HEP), IC50 determination; type: biochemical; conditions: assay of Example C, inhibition of HEP
T2 construct: 20S Human Erythrocyte Proteasome (HEP), purchased from Immatics Biotechnologies Inc; purchased Immatics Biotechnologies Inc., Tübingen, Germany; host or cells: human erythrocytes (natural source)
Summary of the method: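 20S proteasome at 0.2 μg/mL (about 0.6 nM catalytic sites) in 20 mM Tris with 0.04% SDS, preincubated 15 min at 37° C with inhibitor before Suc-LLVY-AMC (100 μM final). AMC fluorescence read in the linear range; triplicates, IC50 from concentration series.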

CC(C)C[C@H](NC(=O)[C@H](CCCNC(=N)N[N+](=O)[O-])NC(=O)/C=C/c1cccs1)B(O)O [D.7.23, Boronic acid, [(1R)-1-[[(2S)-5-[[imino(nitroamino)methyl]amino]-2-[[3-(thiophen-2-yl)propenoyl]amino]-1-oxopentyl]amino]-3-methylbutyl]]
EC50 [1]: > 10000 nM
IC50 [2]: < 10 nM

CC(C)C[C@H](NC(=O)[C@H](CCCNC(=N)N[N+](=O)[O-])NC(=O)CCCCC1CCCCC1)B(O)O [D.7.24, Boronic acid, [(1R)-1-[[(2S)-5-[[imino(nitroamino)methyl]amino]-2-[(5-cyclohexylpentanoyl)amino]-1-oxopentyl]amino]-3-methylbutyl]]
EC50 [1]: 200 to 2000 nM
IC50 [2]: < 10 nM

CC(C)=CCC[C@@H](C)CC(=O)N[C@@H](CCCNC(=N)N[N+](=O)[O-])C(=O)N[C@@H](CC(C)C)B(O)O [D.7.25, Boronic acid, [(1R)-1-[[(2S)-5-[[imino(nitroamino)methyl]amino]-2-[((3R)-3,7-dimethyloct-6-enoyl)amino]-1-oxopentyl]amino]-3-methylbutyl]]
EC50 [1]: 2000 to 10000 nM
IC50 [2]: < 10 nM

Cc1ccc(CSCCC(=O)N[C@@H](CCCNC(=N)N[N+](=O)[O-])C(=O)N[C@@H](CC(C)C)B(O)O)cc1 [D.7.26, Boronic acid, [(1R)-1-[[(2S)-5-[[imino(nitroamino)methyl]amino]-2-[[3-[(4-methylbenzyl)sulfanyl]propanoyl]amino]-1-oxopentyl]amino]-3-methylbutyl]]
EC50 [1]: 2000 to 10000 nM
IC50 [2]: < 10 nM

CC(C)C[C@H](NC(=O)[C@H](CCCNC(=N)N[N+](=O)[O-])NC(=O)c1ccc(-n2cccc2)cc1)B(O)O [D.7.27, Boronic acid, [(1R)-1-[[(2S)-5-[[imino(nitroamino)methyl]amino]-2-[(4-pyrrol-1-ylbenzoyl)amino]-1-oxopentyl]amino]-3-methylbutyl]]
EC50 [1]: 2000 to 10000 nM
IC50 [2]: < 10 nM

COc1ccc(F)cc1C(=O)N[C@@H](CCCNC(=N)N[N+](=O)[O-])C(=O)N[C@@H](CC(C)C)B(O)O [D.7.28, Boronic acid, [(1R)-1-[[(2S)-5-[[imino(nitroamino)methyl]amino]-2-[(5-fluoro-2-methoxybenzoyl)amino]-1-oxopentyl]amino]-3-methylbutyl]]
EC50 [1]: > 10000 nM
IC50 [2]: < 10 nM

CC(C)C[C@H](NC(=O)[C@H](CCCNC(=N)N[N+](=O)[O-])NC(=O)C1CC1)B(O)O [D.7.30, Boronic acid, [(1R)-1-[[(2S)-5-[[imino(nitroamino)methyl]amino]-2-[(cyclopropanecarbonyl)amino]-1-oxopentyl]amino]-3-methylbutyl]]
EC50 [1]: > 10000 nM
IC50 [2]: < 100 nM

CCOc1ccc(C(=O)N[C@@H](CCCNC(=N)N[N+](=O)[O-])C(=O)N[C@@H](CC(C)C)B(O)O)cc1 [D.7.31, Boronic acid, [(1R)-1-[[(2S)-5-[[imino(nitroamino)methyl]amino]-2-[(4-ethoxybenzoyl)amino]-1-oxopentyl]amino]-3-methylbutyl]]
EC50 [1]: > 10000 nM
IC50 [2]: < 10 nM

CC(C)C[C@H](NC(=O)[C@H](CCCNC(=N)N[N+](=O)[O-])NC(=O)/C=C/c1ccc(Br)cc1)B(O)O [D.7.32, Boronic acid, [(1R)-1-[[(2S)-5-[[imino(nitroamino)methyl]amino]-2-[((E)-3-(4-bromophenyl)prop-2-enoyl)amino]-1-oxopentyl]amino]-3-methylbutyl]]
EC50 [1]: 2000 to 10000 nM
IC50 [2]: < 10 nM

COc1ccc2cc([C@H](C)C(=O)N[C@@H](CCCNC(=N)N[N+](=O)[O-])C(=O)N[C@@H](CC(C)C)B(O)O)ccc2c1 [D.7.33, Boronic acid, [(1R)-1-[[(2S)-5-[[imino(nitroamino)methyl]amino]-2-[[(2S)-2-(6-methoxynaphthalen-2-yl)-propanoyl]amino]-1-oxopentyl]amino]-3-methylbutyl]]
EC50 [1]: 2000 to 10000 nM
IC50 [2]: < 10 nM

COc1ccc(C(=O)N[C@@H](CCCNC(=N)N[N+](=O)[O-])C(=O)N[C@@H](CC(C)C)B(O)O)cc1F [D.7.35, Boronic acid, [(1R)-1-[[(2S)-5-[[imino(nitroamino)methyl]amino]-2-[(3-fluoro-4-methoxybenzoyl)amino]-1-oxopentyl]amino]-3-methylbutyl]]
EC50 [1]: > 10000 nM
IC50 [2]: < 10 nM

CC(C)C[C@H](NC(=O)[C@H](CCCNC(=N)N[N+](=O)[O-])NC(=O)/C=C/c1ccc2ccccc2c1)B(O)O [D.7.36, Boronic acid, [(1R)-1-[[(2S)-5-[[imino(nitroamino)methyl]amino]-2-[[(E)-3-(naphthalen-2-yl)prop-2-enoyl]amino]-1-oxopentyl]amino]-3-methylbutyl]]
EC50 [1]: 2000 to 10000 nM
IC50 [2]: < 10 nM

Cc1cc(C(=O)N[C@@H](CCCNC(=N)N[N+](=O)[O-])C(=O)N[C@@H](CC(C)C)B(O)O)ccc1F [D.7.37]
EC50 [1]: > 10000 nM
IC50 [2]: < 10 nM

CC(C)C[C@H](NC(=O)[C@H](CCCNC(=N)N[N+](=O)[O-])NC(=O)CCCNC(=O)OCC1c2ccccc2-c2ccccc21)B(O)O [D.7.38, Boronic acid, [(1R)-1-[[(2S)-5-[[imino(nitroamino)methyl]amino]-2-[[[[[(9H-fluoren-9-yl)methoxy]carbonyl]amino]butanoyl]amino]-1-oxopentyl]amino]-3-methylbutyl]]
EC50 [1]: 200 to 2000 nM
IC50 [2]: < 10 nM

CC(C)C[C@H](NC(=O)[C@H](CCCNC(=N)N[N+](=O)[O-])NC(=O)c1ccc(Br)cc1)B(O)O [D.7.39, Boronic acid, [(1R)-1-[[(2S)-5-[[imino(nitroamino)methyl]amino]-2-[(4-bromobenzoyl)amino]-1-oxopentyl]amino]-3-methylbutyl]]
EC50 [1]: 2000 to 10000 nM
IC50 [2]: < 10 nM

CCCCCCCCCCC(=O)N[C@@H](CCCNC(=N)N[N+](=O)[O-])C(=O)N[C@@H](CC(C)C)B(O)O [D.7.41, Boronic acid, [(1R)-1-[[(2S)-5-[[imino(nitroamino)methyl]amino]-2-[(undecanoyl)amino]-1-oxopentyl]amino]-3-methylbutyl]]
EC50 [1]: < 200 nM
IC50 [2]: < 10 nM

CC(C)C[C@H](NC(=O)[C@H](CCCNC(=N)N[N+](=O)[O-])NC(=O)CCCCCCCCCCC#N)B(O)O [D.7.60, Boronic acid, [(1R)-1-[[(2S)-5-[[imino(nitroamino)methyl]amino]-2-[(11-cianoundecanoyl)amino]-1-oxopentyl]amino]-3-methylbutyl]]
EC50 [1]: 2000 to 10000 nM
IC50 [2]: < 10 nM

CC(C)C[C@H](NC(=O)[C@H](CCCNC(=N)N[N+](=O)[O-])NC(=O)CCCCCCCCC#N)B(O)O [D.7.61, Boronic acid, [(1R)-1-[[(2S)-5-[[imino(nitroamino)methyl]amino]-2-[(9-cyanononanoyl)amino]-1-oxopentyl]amino]-3-methylbutyl]]
EC50 [1]: > 10000 nM
IC50 [2]: < 10 nM

CCCCCCCCCC(=O)N[C@H](C(=O)N[C@@H](CC(C)C)B1O[C@@H]2C[C@@H]3C[C@@H](C3(C)C)[C@]2(C)O1)[C@@H](C)O [D.8, Decanamide, N-[(1S,2R)-1-[[[(1R)-1-[(3aS,4S,6S,7aR)-hexahydro-3a,5,5-trimethyl-4,6-methano-1,3,2-benzodioxaborol-2-yl]-3-methylbutyl]amino]carbonyl]-2-hydroxypropyl]-]
EC50 [1]: < 200 nM
IC50 [2]: < 10 nM

CC(C)C[C@H](NC(=O)[C@@H](NC(=O)c1cnccn1)[C@@H](C)O)B1O[C@@H]2C[C@@H]3C[C@@H](C3(C)C)[C@]2(C)O1 [D.8.4, 2-Pyrazinecarbossamide, N-[(1S,2R)-1-[[[(1R)-1-[(3aS,4S, 6S,7aR)-hexahydro-3a,5,5-trimethyl-4,6-methano-1,3,2-benzodioxaborol-2-yl]-3-melthylbutyl]amino]carbonyl]-2-hydroxypropyl]]
EC50 [1]: < 200 nM
IC50 [2]: < 100 nM

CCCCCCCCCCCCC(=O)N[C@H](C(=O)N[C@@H](CC(C)C)B1O[C@@H]2C[C@@H]3C[C@@H](C3(C)C)[C@]2(C)O1)[C@@H](C)O [D.8.5, Tridecanamide, N-[(1S,2R)-1-[[[(1R)-1-[(3aS,4S,6S,7aR)-hexahydro-3a,5,5-trimethyl-4,6-methano-1,3,2-benzodioxaborol-2-yl]-3-methylbutyl]amino]carbonyl]-2-hydroxypropyl]]
EC50 [1]: < 200 nM
IC50 [2]: < 10 nM

CC(C)C[C@H](NC(=O)[C@@H](NC(=O)c1ccc(-c2ccccc2)cc1)[C@@H](C)O)B1O[C@@H]2C[C@@H]3C[C@@H](C3(C)C)[C@]2(C)O1 [D.8.6, 4-Phenylbenzamide, N-[(1S,2R)-1-[[[(1R)-1-[(3aS,4S,6S,7aR)-hexahydro-3a,5,5-trimethyl-4,6-methano-1,3,2-benzodioxaborol-2-yl]-3-methylbutyl]amino]carbonyl]-2-hydroxypropyl]]
EC50 [1]: < 200 nM
IC50 [2]: < 10 nM

CC(C)C[C@H](NC(=O)[C@H](CC(N)=O)NC(=O)c1cnccn1)B1O[C@@H]2C[C@@H]3C[C@@H](C3(C)C)[C@]2(C)O1 [D.8.18, 2-Pyrazinecarboxamide, N-[(1S)-1-[[[(1R)-1-[(3aS,4S,6S,7aR)-hexahydro-3a,5,5-trimethyl-4,6-methano-1,3,2-benzodioxaborol-2-yl]-3-methylbutyl]amino]carbonyl]-2-carbamoylethyl]]
EC50 [1]: 200 to 2000 nM
IC50 [2]: < 100 nM
